Data published in paper PMC6063448, “Antimicrobial activity of linear lipopeptides derived from BP100 towards plant pathogens” (PLoS ONE, 2018).

What was measured:
Type in all cases: cell-based
[1] = test system: Penicillium expansum EPS26; assay: MIC, antifungal growth inhibition in microtiter plates (PDB); conditions: Pe, 22°C, seven days, OD 600 nm, lowest concentration with no growth, given as interval of tested concentrations, three replicates, experiment repeated twice
Procedure: (§1) The following plant pathogenic fungal strains were used: Penicillium expansum EPS26 (Institut de Tecnologia Agroalimentària, Universitat de Girona, Spain) and Fusarium oxysporum f. sp. lycopersici FOL 3 race 2 (ATCC 201829, American Type Culture Collection,Virginia, EEUU). Strains were cultured on potato dextrose agar (PDA) plates (Difco). Conidia from P. expansum and microconidia from F. oxysporum were obtained from 5–7 day-old agar Potato Dextrose (PDA) cultures after growth at 25°C. Inoculum was prepared by scraping spore material from culture surfaces with a cotton swab and resuspending it in distilled water containing 0.5‰ of tween 80. The suspensions were filtered through Miracloth (Merk, Millipore) and the concentration of conidia was determined using a hemacytometer and adjusted to 10^4 conidia mL^-1 for F. oxysporum and to 10^3 conidia mL^-1 for P. expansum.
(§2) Lyophilized peptides were solubilized in sterile Milli-Q water to a final concentration of 1 mM and filter sterilized through a 0.22-μm pore filter. […] For antibacterial activity 20 μL of each dilution were mixed in a microtiter plate well with 20 μL of the corresponding suspension of the bacterial indicator, 160 μL of Trypticase Soy Broth (TSB) (BioMèrieux, France) to a total volume of 200 μL. For antifungal activity 20 μL of each stock solution were mixed in a microtiter plate well with 80 μL of the corresponding suspension of the fungal pathogen and 100 μL of double concentrated Potato Dextrose Broth (PDB) to a total volume of 200 μL containing 0.003% w/v of chloramphenicol to prevent bacterial contamination.
(§3) Three replicates for each combination of strain, compound and concentration were used. Microbial growth was determined by optical density measurement at 600 nm (Bioscreen C, Labsystem, Helsinki, Finland). For antibacterial activity microplates were incubated at 25°C with 20 s shaking before hourly absorbance measurement for 48 h. For antifungal activity microplates were incubated at 22°C with 1 min shaking before absorbance measurement that were done every two hours during seven days. The experiment was repeated twice. The MIC was taken as the lowest compound concentration with no growth at the end of the experiment.

[2] = test system: Fusarium oxysporum f. sp. lycopersici FOL 3 race 2; assay: as above; conditions: Fo, 22°C, seven days, OD 600 nm, lowest concentration with no growth, given as interval of tested concentrations, three replicates, experiment repeated twice
Procedure: as §1, §2, §3

[3] = test system: Pseudomonas syringae pv. actinidiae Psa3700.1.1; assay: MIC, growth inhibition in microtiter plates (TSB); conditions: Psa, 25°C, 48 h, OD 600 nm, lowest concentration with no growth, given as interval of tested concentrations, three replicates, experiment repeated twice
Text: (§4) The following plant pathogenic bacterial strains were used: Erwinia amylovora PMV6076 (Institut National de la Recherche Agronomique, Angers, France), Pseudomonas syringae pv. syringae EPS94 (Institut de Tecnologia Agroalimentària, Universitat de Girona, Spain), Xanthomonas axonopodis pv. vesicatoria 2133–2, Pseudomonas syringae pv. actinidiae Psa3700.1.1, Xanthomonas fragariae Xf349-9A (Instituto Valenciano de Investigaciones Agrarias, Valencia, Spain), and Xanthomonas arboricola pv. pruni CFBP5563 (Collection Française de Bactéries associées aux Plantes, Angers, France). All bacteria except for X. fragariae were stored in Luria Bertani (LB) broth supplemented with glycerol (20%) and maintained at -80°C. For X. fragariae, Medium B [46] was used instead of LB. E. amylovora, X. arboricola pv. pruni, P. syringae pv. syringae and P. syringae pv. actinidiae were scrapped from the agar media after growing for 24 h at 25°C, and X. axonopodis pv. vesicatoria and X. fragariae after growing for 48 h at 25°C. The cell material was suspended in sterile water to obtain a suspension of 10^8 CFU mL^-1.
as §2, §3

[4] = test system: Xanthomonas axonopodis pv. vesicatoria 2133–2; assay: MIC, growth inhibition in microtiter plates (TSB); conditions: Xav, 25°C, 48 h, OD 600 nm, lowest concentration with no growth, given as interval of tested concentrations, three replicates, experiment repeated twice
Text: as §4, §2, §3

[5] = test system: Xanthomonas fragariae Xf349-9A; assay: MIC, growth inhibition in microtiter plates (TSB); conditions: Xf, 25°C, 48 h, OD 600 nm, lowest concentration with no growth, given as interval of tested concentrations, three replicates, experiment repeated twice
Text: as §4, §2, §3

[6] = test system: Erwinia amylovora PMV6076; assay: MIC, growth inhibition in microtiter plates (TSB); conditions: Ea, 25°C, 48 h, OD 600 nm, lowest concentration with no growth, given as interval of tested concentrations, three replicates, experiment repeated twice
Text: as §4, §2, §3

[7] = test system: Xanthomonas arboricola pv. pruni CFBP5563; assay: MIC, growth inhibition in microtiter plates (TSB); conditions: Xap, 25°C, 48 h, OD 600 nm, lowest concentration with no growth, given as interval of tested concentrations, three replicates, experiment repeated twice
Text: as §4, §2, §3

[8] = test system: Pseudomonas syringae pv. syringae EPS94; assay: MIC, growth inhibition in microtiter plates (TSB); conditions: Pss, 25°C, 48 h, OD 600 nm, lowest concentration with no growth, given as interval of tested concentrations, three replicates, experiment repeated twice
Text: as §4, §2, §3

CCCCCCCCCCCC(=O)NCCCC[C@H](NC(=O)[C@H](CCCCN)NC(=O)[C@H](CCCCN)NC(C)=O)C(=O)N[C@@H](Cc1ccccc1)C(=O)N[C@@H](CCCCN)C(=O)N[C@@H](CCCCN)C(=O)N[C@H](C(=O)N[C@@H](CC(C)C)C(=O)N[C@@H](CCCCN)C(=O)N[C@@H](Cc1ccc(O)cc1)C(=O)N[C@@H](CC(C)C)C(N)=O)[C@@H](C)CC [BP394, Ac-KKK(COC11H23)FKKILKYL-NH2]
MIC [1]: 12.5 to 25 µM
MIC [2]: 6.2 to 12.5 µM
MIC [3]: 6.2 to 12.5 µM
MIC [4]: 1.6 to 3.1 µM
MIC [5]: 0.8 to 1.6 µM
MIC [6]: 12.5 to 25 µM
MIC [7]: 1.6 to 3.1 µM
MIC [8]: 6.2 to 12.5 µM

CCCCCCCCCCCC(=O)NCCCC[C@H](NC(=O)[C@H](Cc1ccc(O)cc1)NC(=O)[C@H](CCCCN)NC(=O)[C@H](CC(C)C)NC(=O)[C@@H](NC(=O)[C@H](CCCCN)NC(=O)[C@H](CCCCN)NC(=O)[C@H](Cc1ccccc1)NC(=O)[C@H](CC(C)C)NC(=O)[C@H](CCCCN)NC(=O)[C@H](CCCCN)NC(C)=O)[C@@H](C)CC)C(N)=O [BP402, Ac-KKLFKKILKYK(COC11H23)-NH2]
MIC [1]: 12.5 to 25 µM
MIC [2]: 6.2 to 12.5 µM
MIC [3]: 3.1 to 6.2 µM
MIC [4]: 1.6 to 3.1 µM
MIC [5]: 3.1 to 6.2 µM
MIC [6]: 3.1 to 6.2 µM
MIC [7]: 1.6 to 3.1 µM
MIC [8]: 3.1 to 6.2 µM

CCCCCC(=O)NCCCC[C@H](NC(=O)[C@H](CC(C)C)NC(=O)[C@@H](NC(=O)[C@H](CCCCN)NC(=O)[C@H](CCCCN)NC(=O)[C@H](Cc1ccccc1)NC(=O)[C@H](CC(C)C)NC(=O)[C@H](CCCCN)NC(=O)[C@H](CCCCN)NC(C)=O)[C@@H](C)CC)C(=O)N[C@@H](Cc1ccc(O)cc1)C(=O)N[C@@H](CC(C)C)C(N)=O [BP376, Ac-KKLFKKILK(COC5H11)YL-NH2]
MIC [1]: 3.1 to 6.2 µM
MIC [2]: 0.4 to 0.8 µM
MIC [3]: 3.1 to 6.2 µM
MIC [4]: 6.2 to 12.5 µM
MIC [5]: 3.1 to 6.2 µM
MIC [6]: 6.2 to 12.5 µM
MIC [7]: 6.2 to 12.5 µM
MIC [8]: 12.5 to 25 µM

CCCCCC(=O)NCCCC[C@H](NC(=O)[C@H](CCCCN)NC(=O)[C@H](Cc1ccccc1)NC(=O)[C@H](CC(C)C)NC(=O)[C@H](CCCCN)NC(=O)[C@H](CCCCN)NC(C)=O)C(=O)N[C@H](C(=O)N[C@@H](CC(C)C)C(=O)N[C@@H](CCCCN)C(=O)N[C@@H](Cc1ccc(O)cc1)C(=O)N[C@@H](CC(C)C)C(N)=O)[C@@H](C)CC [BP373, Ac-KKLFKK(COC5H11)ILKYL-NH2]
MIC [1]: 3.1 to 6.2 µM
MIC [2]: 0.4 to 0.8 µM
MIC [3]: 3.1 to 6.2 µM
MIC [4]: 6.2 to 12.5 µM
MIC [5]: 3.1 to 6.2 µM
MIC [6]: 3.1 to 6.2 µM
MIC [7]: 3.1 to 6.2 µM
MIC [8]: 6.2 to 12.5 µM

CCCCCC(=O)NCCCC[C@H](NC(=O)[C@@H](NC(=O)[C@H](CCCCN)NC(=O)[C@H](CCCCN)NC(=O)[C@H](Cc1ccccc1)NC(=O)[C@H](CC(C)C)NC(=O)[C@H](CCCCN)NC(=O)[C@H](CCCCN)NC(C)=O)[C@@H](C)CC)C(=O)N[C@@H](CCCCN)C(=O)N[C@@H](Cc1ccc(O)cc1)C(=O)N[C@@H](CC(C)C)C(N)=O [BP375, Ac-KKLFKKIK(COC5H11)KYL-NH2]
MIC [1]: 3.1 to 6.2 µM
MIC [2]: 0.4 to 0.8 µM
MIC [3]: 3.1 to 6.2 µM
MIC [4]: 6.2 to 12.5 µM
MIC [5]: 3.1 to 6.2 µM
MIC [6]: 3.1 to 6.2 µM
MIC [7]: 3.1 to 6.2 µM
MIC [8]: 3.1 to 6.2 µM

CCCCCC(=O)NCCCC[C@H](NC(=O)[C@H](CCCCN)NC(=O)[C@H](CC(C)C)NC(=O)[C@@H](NC(=O)[C@H](CCCCN)NC(=O)[C@H](CCCCN)NC(=O)[C@H](Cc1ccccc1)NC(=O)[C@H](CC(C)C)NC(=O)[C@H](CCCCN)NC(=O)[C@H](CCCCN)NC(C)=O)[C@@H](C)CC)C(=O)N[C@@H](CC(C)C)C(N)=O [BP377, Ac-KKLFKKILKK(COC5H11)L-NH2]
MIC [1]: 3.1 to 6.2 µM
MIC [2]: 0.8 to 1.6 µM
MIC [3]: 3.1 to 6.2 µM
MIC [4]: 6.2 to 12.5 µM
MIC [5]: 3.1 to 6.2 µM
MIC [6]: 3.1 to 6.2 µM
MIC [7]: 3.1 to 6.2 µM
MIC [8]: 3.1 to 6.2 µM

CCCCCC(=O)N[C@@H](CCCCN)C(=O)N[C@@H](CCCCN)C(=O)N[C@@H](CC(C)C)C(=O)N[C@@H](Cc1ccccc1)C(=O)N[C@@H](CCCCN)C(=O)N[C@@H](CCCCN)C(=O)N[C@H](C(=O)N[C@@H](CC(C)C)C(=O)N[C@@H](CCCCN)C(=O)N[C@@H](Cc1ccc(O)cc1)C(=O)N[C@@H](CC(C)C)C(N)=O)[C@@H](C)CC [BP367, C5H11CO-KKLFKKILKYL-NH2]
MIC [1]: 12.5 to 25 µM
MIC [2]: 1.6 to 3.1 µM
MIC [3]: 3.1 to 6.2 µM
MIC [4]: 3.1 to 6.2 µM
MIC [5]: 3.1 to 6.2 µM
MIC [6]: 3.1 to 6.2 µM
MIC [7]: 3.1 to 6.2 µM
MIC [8]: 3.1 to 6.2 µM

CCCCCC(=O)NCCCC[C@H](NC(=O)[C@H](Cc1ccccc1)NC(=O)[C@H](CC(C)C)NC(=O)[C@H](CCCCN)NC(=O)[C@H](CCCCN)NC(C)=O)C(=O)N[C@@H](CCCCN)C(=O)N[C@H](C(=O)N[C@@H](CC(C)C)C(=O)N[C@@H](CCCCN)C(=O)N[C@@H](Cc1ccc(O)cc1)C(=O)N[C@@H](CC(C)C)C(N)=O)[C@@H](C)CC [BP372, Ac-KKLFK(COC5H11)KILKYL-NH2]
MIC [1]: 6.2 to 12.5 µM
MIC [2]: 0.8 to 1.6 µM
MIC [3]: 6.2 to 12.5 µM
MIC [4]: 6.2 to 12.5 µM
MIC [5]: 3.1 to 6.2 µM
MIC [6]: 6.2 to 12.5 µM
MIC [7]: 3.1 to 6.2 µM
MIC [8]: 6.2 to 12.5 µM

CCCCCCCCCCCC(=O)NCCCC[C@H](NC(=O)[C@H](CCCCN)NC(=O)[C@H](CCCCN)NC(=O)[C@H](Cc1ccccc1)NC(=O)[C@H](CC(C)C)NC(=O)[C@H](CCCCN)NC(=O)[C@H](CCCCN)NC(C)=O)C(=O)N[C@@H](CC(C)C)C(=O)N[C@@H](CCCCN)C(=O)N[C@@H](Cc1ccc(O)cc1)C(=O)N[C@@H](CC(C)C)C(N)=O [BP398, Ac-KKLFKKK(COC11H23)LKYL-NH2]
MIC [1]: >25 µM
MIC [2]: 6.2 to 12.5 µM
MIC [3]: 3.1 to 6.2 µM
MIC [4]: 0.8 to 1.6 µM
MIC [5]: 3.1 to 6.2 µM
MIC [6]: >25 µM
MIC [7]: 1.6 to 3.1 µM
MIC [8]: 3.1 to 6.2 µM

CCCCCC(=O)NCCCC[C@H](NC(=O)[C@H](CCCCN)NC(C)=O)C(=O)N[C@@H](CC(C)C)C(=O)N[C@@H](Cc1ccccc1)C(=O)N[C@@H](CCCCN)C(=O)N[C@@H](CCCCN)C(=O)N[C@H](C(=O)N[C@@H](CC(C)C)C(=O)N[C@@H](CCCCN)C(=O)N[C@@H](Cc1ccc(O)cc1)C(=O)N[C@@H](CC(C)C)C(N)=O)[C@@H](C)CC [BP369, Ac-KK(COC5H11)LFKKILKYL-NH2]
MIC [1]: 1.6 to 3.1 µM
MIC [2]: 0.4 to 0.8 µM
MIC [3]: 3.1 to 6.2 µM
MIC [4]: 3.1 to 6.2 µM
MIC [5]: 3.1 to 6.2 µM
MIC [6]: 6.2 to 12.5 µM
MIC [7]: 0.8 to 1.6 µM
MIC [8]: 6.2 to 12.5 µM
